Measurements: patent US12528808B2, “Therapy for erythropoietic protoporphyria (EPP) and X-linked protoporphyria (XLP)” (UNIVERSITY OF PITTSBURGH-OF THE COMMONWEALTH SYSTEM OF …, priority 2019, dated 2026)
Entries after “also recorded” stand apart in the source; their conditions may differ.

Experiments:
WT and Abcg2-null mice = assay: Chemically-induced PPIX accumulation and hepatotoxicity in WT and Abcg2-null mice; settings: DDC 0.1% or GSF 2.5% in diet, two weeks
Description: Animal Studies to Determine the Role of ABCG2 in Chemically-Induced PPIX Accumulation and Hepatotoxicity
WT and Abcg2-null mice were treated with DDC (0.1% in diet) or GSF (2.5% in diet) for two weeks. In addition, hPXR and hPXR/Abcg2-null mice were treated with RIF (100 mg/Kg diet) and INH (400 mg/L drinking water) for four weeks. After the treatment, blood and liver samples were collected for evaluation of liver injury and analysis of PPIX.
Liver injury was evaluated by analyzing serum alanine aminotransaminase (ALT), aspartate aminotransferase (AST), alkaline phosphatase (ALP) (Pointe Scientific Canton, MI), and total bilirubin (Sigma-Aldrich, St. Louis, MO). These liver injury biomarkers were analyzed according to the standard procedures provided by the manufacturers. Blood toxicity was evaluated by analyzing mean corpuscular hemoglobin (MCH) (HESKA HemaTrue; Loveland, CO) and total hemoglobin (tHb) (AVOXimeter 4000; Edison, NJ).
Liver and skin tissues were first fixed in 4% formaldehyde phosphate solution overnight and then dehydrated and embedded in paraffin. […] sections were cut and stained. For hematoxylin and eosin (H&E) staining, tissue sections were stained in hematoxylin solution for 5 min, washed with tap water for 1 min, and then differentiated in 1% acetic acid solution for 1 min and followed by staining in eosin solution for 1 min. For Sirius Red Staining, tissue sections were stained in 0.1% PicroSirius Red solution for 1 h, and then washed with 1% acetic acid solution twice.

ABCG2 = target: T1, ABCG2 (Homo sapiens, UniProt Q9UNQ0); assay: Protoporphyrin IX (PPIX)-based ABCG2 inhibition assay using the A549 cancer cell line; settings: read-out: IC50, the half maximal inhibitory concentration
T1 construct: developed using the A549 cancer cell line; endogenous in cells; host or cells: A549 cancer cell line
T1 sequence (Q9UNQ0 1-655): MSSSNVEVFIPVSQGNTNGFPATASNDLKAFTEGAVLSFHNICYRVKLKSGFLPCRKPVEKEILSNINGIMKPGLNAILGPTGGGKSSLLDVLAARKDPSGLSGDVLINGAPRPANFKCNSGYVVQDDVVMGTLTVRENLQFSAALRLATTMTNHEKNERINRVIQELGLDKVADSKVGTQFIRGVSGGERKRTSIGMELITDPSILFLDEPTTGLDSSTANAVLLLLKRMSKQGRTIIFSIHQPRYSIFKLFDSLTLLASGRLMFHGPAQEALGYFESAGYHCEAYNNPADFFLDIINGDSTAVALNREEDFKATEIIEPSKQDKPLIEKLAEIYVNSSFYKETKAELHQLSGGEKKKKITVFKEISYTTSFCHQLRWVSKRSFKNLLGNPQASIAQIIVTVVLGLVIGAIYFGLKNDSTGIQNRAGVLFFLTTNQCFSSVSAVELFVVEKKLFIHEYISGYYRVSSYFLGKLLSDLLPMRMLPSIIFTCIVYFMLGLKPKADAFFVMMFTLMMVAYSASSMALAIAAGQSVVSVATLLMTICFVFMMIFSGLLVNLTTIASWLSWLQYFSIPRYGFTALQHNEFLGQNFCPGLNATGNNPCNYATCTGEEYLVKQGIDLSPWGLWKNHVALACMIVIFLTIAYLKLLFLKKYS
Source text: A Protoporphyrin IX(PPIX)-based ABCG2 inhibition assay was developed using the A549 cancer cell line.

[1] = Metabolic stability assay, incubation with human liver microsomes (HLM); type: in vitro ADME; settings: remaining parent compound
Description: Metabolic Stability Assay.
After the incubation (0-60 min), the remaining parent compounds were analyzed by UPLC-QTOFMS.

[2] = Pharmacokinetic study in mice; type: in vivo; settings: WT mice, 50 mg/kg by gavage, serum, FIG. 11
Description: Pharmacokinetic Study in Mice.
Blood was collected at 0, 0.25, 0.5, 1, 2, 4, 8, 12, 24 h after treatment. The concentration of target compound in serum was analyzed by UPLC-QTOFMS.

RBCs of Fech-mut mice = assay: Effect on PPIX efflux from RBCs; type: cell-based; settings: 10 μM, FIG. 14
Source text: Effects of ABCG2 Inhibitors on PPIX Efflux from RBCs.
PPIX in RBCs and culture medium was extracted, respectively, and analyzed by UPLC-QTOFMS.

Fech-mut mice = assay: Efficacy against EPP-associated phototoxicity in vivo (Fech-mut mouse model)
Description: Efficacy of ABCG2 Inhibitors Against EPP-Associated Phototoxicity In Vivo.
The Fech-mut mouse model was used as an EPP model to determine the efficacy of ABCG2 inhibitors against EPP-associated phototoxicity, the most common symptom in EPP patients (6-8). […] After 5 days' treatment, all mice were sacrificed for evaluation of skin damage.
Thirty minutes after treatment, the mice were exposed to UV light for 30 minutes. The same treatment (drug plus light exposure) was repeated once daily for 4 days. From the 5th day, drug treatment was stopped, but the light exposure was continued for 4 more days. The gross appearance of mouse skin was recorded every day. On the 9th day, all mice were sacrificed and the back skin was collected for evaluation of phototoxicity.

carboxylesterase 1 = target: T2, carboxylesterase 1 (Homo sapiens, UniProt P23141); assay: Hydrolysis of tert-butyl ester group by carboxylesterase 1; type: in vitro ADME
T2 sequence (P23141 18-567): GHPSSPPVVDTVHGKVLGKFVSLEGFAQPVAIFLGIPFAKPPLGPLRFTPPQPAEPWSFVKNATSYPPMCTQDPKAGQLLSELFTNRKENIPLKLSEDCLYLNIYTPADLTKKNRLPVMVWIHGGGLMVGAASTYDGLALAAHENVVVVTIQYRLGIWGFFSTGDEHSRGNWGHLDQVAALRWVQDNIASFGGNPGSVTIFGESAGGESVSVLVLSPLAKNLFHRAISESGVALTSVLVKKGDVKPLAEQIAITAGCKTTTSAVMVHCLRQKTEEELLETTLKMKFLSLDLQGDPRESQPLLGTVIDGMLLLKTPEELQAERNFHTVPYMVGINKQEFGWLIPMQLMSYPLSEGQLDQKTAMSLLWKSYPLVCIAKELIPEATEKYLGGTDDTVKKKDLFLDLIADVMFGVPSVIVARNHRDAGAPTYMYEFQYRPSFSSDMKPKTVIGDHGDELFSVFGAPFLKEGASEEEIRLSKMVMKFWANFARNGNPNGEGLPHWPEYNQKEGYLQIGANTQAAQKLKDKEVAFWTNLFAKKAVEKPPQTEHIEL

[3] = read-out: CC50, the 50% cytotoxic concentration, MTT assay

| SMILES | IC50 (ABCG2) [µM] | CC50 (MTT cytotoxicity assay; [3]) [µM] | HLM stability (% vs 0 min) 30 min [1] [%] | HLM stability (% vs 0 min) 60 min [1] [%] | other results |
| --- | --- | --- | --- | --- | --- |
| COC1=CC(=O)C[C@@H](C)[C@]12Oc1c(Cl)c(OC)cc(OC)c1C2=O [GSF, griseofulvin] | – | – | – | – | liver damage, PPIX accumulation, bile plugs (WT and Abcg2-null mice; Abcg2-null mice): these effects failed to occur; liver damage, PPIX accumulation, bile plugs (WT and Abcg2-null mice; WT mice): caused liver damage, PPIX accumulation, and bile plugs |
| COc1ccc2c3c([nH]c2c1)[C@H](CC(C)C)N1C(=O)[C@H](CC(=O)NCc2ccccc2)NC(=O)[C@@H]1C3 [Compound K33, N-benzyl-2-((3S,6S,12aS)-6-isobutyl-9-methoxy-1,4-dioxo-1,2,3,4,6,7,12,12a-octahydropyrazino[1′,2′:1,6]pyrido[3,4-b]indol-3-yl)acetamide] | 0.25 | 31.1 | 37 | 18 | – |
| COc1ccc2c3c([nH]c2c1)[C@H](CC(C)C)N1C(=O)[C@H](CCC(=O)NC(C)C)NC(=O)[C@@H]1C3 [Compound K34, 3-((3S,6S,12aS)-6-isobutyl-9-methoxy-1,4-dioxo-1,2,3,4,6,7,12,12a-octahydropyrazino[1′,2′:1,6]pyrido[3,4-b]indol-3-yl)-N-isopropylpropanamide] | – | – | – | – | pharmacokinetic profile [2]: better pharmacokinetic profiles than KO143 |
| COc1ccc2c3c([nH]c2c1)[C@H](CC(C)C)N1C(=O)[C@H](CC(=O)NC(C)C)NC(=O)[C@@H]1C3 [Compound K31, 2-((3S,6S,12aS)-6-isobutyl-9-methoxy-1,4-dioxo-1,2,3,4,6,7,12,12a-octahydropyrazino[1′,2′:1,6]pyrido[3,4-b]indol-3-yl)-N-isopropylacetamide] | 0.27 | > 100 | 65 | 49 | pharmacokinetic profile ([2]; 50 mg/kg): better pharmacokinetic profiles than KO143; also recorded: ideal pharmacokinetic profile; PPIX efflux from RBCs (RBCs of Fech-mut mice): significantly inhibited PPIX efflux from RBCs; protection from phototoxicity in EPP mouse model (Fech-mut mice; Fech-mut mice pretreated 30 min, then UV light (395-410 nm) 30 min, 5 days, FIG. 12): fully protected the EPP mice from phototoxicity; phototoxicity after withdrawal (withdrawal test) (Fech-mut mice; Fech-mut mice, 100 mg/kg po plus light day 1 to 4, light only from day 5, FIG. 13): showed phototoxicity soon after the withdrawal of K31 |
| COc1ccc2c3c([nH]c2c1)[C@H](CC(C)C)N1C(=O)[C@H](CCCCNC(=O)C(C)(C)C)N(C(=O)C(C)(C)C)C(=O)[C@@H]1C3 [Compound K11, N-(4-((3S,6S,12aS)-6-isobutyl-9-methoxy-1,4-dioxo-2-pivaloyl-1,2,3,4,6,7,12,12a-octahydropyrazino[1′,2′:1,6]pyrido[3,4-b]indol-3-yl)butyl)pivalamide] | – | – | 7 | 7 | CC50 (MTT cytotoxicity assay): 39.6 µM |
| COc1ccc2c3c([nH]c2c1)[C@H](CC(C)C)N1C(=O)[C@H](CC(=O)NC2CCCCC2)NC(=O)[C@@H]1C3 [Compound K23, N-cyclohexyl-2-((3S,6S,12aS)-6-isobutyl-9-methoxy-1,4-dioxo-1,2,3,4,6,7,12,12a-octahydropyrazino[1′,2′:1,6]pyrido[3,4-b]indol-3-yl)acetamide] | 0.13 | 46.6 | 45 | 26 | – |
| CCOC(=O)C1=C(C)NC(C)=C(C(=O)OCC)C1C [DDC, 3,5-diethoxycarbonyl-1,4-dihydrocollidine] | – | – | – | – | liver damage, PPIX accumulation, bile plugs (WT and Abcg2-null mice; Abcg2-null mice): these effects failed to occur; liver damage, PPIX accumulation, bile plugs (WT and Abcg2-null mice; WT mice): caused liver damage, PPIX accumulation, and bile plugs |
| COc1ccc2c3c([nH]c2c1)[C@H](CC(C)C)N1C(=O)[C@H](CCC(=O)OC(C)(C)C)NC(=O)[C@@H]1C3 [KO143, reference compound] | – | – | – | – | pharmacokinetic profile [2]: poor oral pharmacokinetic profile; stability (hydrolysis of tert-butyl ester group) (carboxylesterase 1): very unstable |
| COc1ccc2c3c([nH]c2c1)[C@H](CC(C)C)N1C(=O)[C@H](CC(=O)NC(C)(C)C)NC(=O)[C@@H]1C3 [Compound K3, N-(tert-butyl)-2-((3S,6S,12aS)-6-isobutyl-9-methoxy-1,4-dioxo-1,2,3,4,6,7,12,12a-octahydropyrazino[1′,2′:1,6]pyrido[3,4-b]indol-3-yl)acetamide] | 0.18 | 58.9 | 74 | 60 | – |
| COc1ccc2c3c([nH]c2c1)[C@H](CC(C)C)N1C(=O)[C@H](CC(=O)N2CCCCC2)NC(=O)[C@@H]1C3 [Compound K25, (3S,6S,12aS)-6-isobutyl-9-methoxy-3-(2-oxo-2-(piperidin-1-yl)ethyl)-2,3,12,12a-tetrahydropyrazino[1′,2′:1,6]pyrido[3,4-b]indole-1,4(6H,7H)-dione] | 3.14 | 26.5 | – | – | – |
| COc1ccc2c3c([nH]c2c1)[C@H](CC(C)C)N1C(=O)[C@H](CCCOC(C)(C)C)NC(=O)[C@@H]1C3 [Compound K7, (3S,6S,12aS)-3-(3-(tert-butoxy)propyl)-6-isobutyl-9-methoxy-2,3,12,12a-tetrahydropyrazino[1′,2′:1,6]pyrido[3,4-b]indole-1,4(6H,7H)-dione] | 0.09 | – | 16 | 9 | CC50 (in vitro): > 100 µM |
| COc1ccc2c3c([nH]c2c1)[C@H](CC(C)C)N1C(=O)[C@H](CCC(=O)NC(C)(C)C)NC(=O)[C@@H]1C3 [Compound K2, N-(tert-butyl)-3-((3S,6S,12aS)-6-isobutyl-9-methoxy-1,4-dioxo-1,2,3,4,6,7,12,12a-octahydropyrazino[1′,2′:1,6]pyrido[3,4-b]indol-3-yl)propanamide] | – | – | – | – | pharmacokinetic profile [2]: better pharmacokinetic profiles than KO143 |
